Measurements: US20160077079A1, “THE CHILDREN'S HOSPITAL OF PHILADELPHIA” (THE CHILDREN'S HOSPITAL OF PHILADELPHIA, priority 2013, published 2016)

Columns and labels:
NCI-H716 = assay: GLP-1 secretion in NCI-H716 L-cells, GLP-1 concentration by ELISA; format: cell-based, human; settings: NCI-H716 cells pre-treated 48 hours with inhibitor
Description: Glucagon-like peptide-1 (GLP-1) has numerous physiological functions, including enhancement of glucose-stimulated insulin secretion, stimulation of β-cell anti-apoptosis and proliferation and inhibition of glucagon secretion, food intake and gastric emptying. These antidiabetic properties of GLP-1 have generated intense interest in the use of this short peptide and its agonists for the treatment of patients with type 2 diabetes. A better understanding of the underlying mechanism of GLP-1 secretion may lead to novel approaches used for the treatment of type 2 diabetes. TCF7L2 is the most strongly associated locus with type 2 diabetes and has been known to bind with the promoter region of the proglucagon gene for many years. […] As such, we investigated if existing PARP-1 inhibitors, previously tested in oncology studies, could have a GLP-1 agonist effect. We leveraged the standard human L-cell line, NCI-H716, for GLP-1 secretion assessment to investigate this possible link. We pre-treated the cells for 48 hours with three different PARP-1 inhibitors, Olaparib, Rucaparib and Iniparib, with or without glucose stimulation (16.8 mM). We measured the resulting GLP-1 concentration using an ELISA kit (Millipore).

[1] = tested on: SNP rs7903146 region of TCF7L2 (HCT116 nuclear extracts); assay: SILAC oligo pull-down quantifying protein binding to the SNP rs7903146 oligonucleotide with and without insulin treatment; format: cell-based, human; settings: HCT116 cells, 1 uM insulin for 1 hour
Procedure: Human HCT 116 cells were cultured in DMEM (4.5 g/l glucose, 10% FCS, 100 U/mL penicillin and 100 íg/mL streptomycin). For insulin stimulation experiments, cells were treated with 1 uM insulin for 1 hour. For SILAC experiments, Cultures were grown according to standard cell-culture procedures in SILAC-light and SILAC-heavy labeled Dulbecco's Modified Eagle Medium (DMEM, ThermoFisher) supplied with 10% dialyzed fetal bovine serum (FBS), ^13C6-lysine and ^13C6-arginine. Cells were washed by cold phosphate-buffered saline (PBS) and harvested by scraping, centrifugation for 5 min at 5000 rpm at 4° C. 10^8 Cells were lysed in 250 ul low salt buffer (10 mM HEPES, 1.5 mM MgCl2, 10 mM KCl, 0.5% NP-40, proteasome inhibitor, phosphatase inhibitor, 10% glycerol, pH 7.9) by incubation on ice for 20 min with vortex 10 seconds per 5 minutes. The nuclei were separated from cytoplasmic fraction by centrifugation 10,000 rpm for 1 min at 4° C. The nuclei pellets were washed once by cold low salt buffer, harvested by centrifugation. […]
The sample was digested with trypsin and analyzed with nanoLC/MS/MS at the Penn Proteomics Core. […] The data were analyzed with Sequest (ThermoFinnigan, San Jose, Calif.; version SRF v. 5). […] The quantification of the SILAC peaks was performed with ProteolQ with customized modification so that the software can use the zoom scanned SLICA peaks for quantification.
To investigate dynamic binding of Parp-1, ATP-dependent RNA helicase A and Thrap3 for the SNP rs7903146 region, we used stable isotope labeling with amino acids in cell culture (SILAC) (Ong, Blagoev et al. 2002) to quantify the binding affinity changes between with and without insulin treatment.
The heavy cells were isotopically labeled in SILAC medium supplied with ^13C6-lysine and ^13C6-arginine and treated with insulin, while the light cells […] served as a control. […] With this approach, we quantified the relative protein abundances including Parp-1, ATP-dependent RNA helicase A and Thrap3 between treatment and without treatment of insulin.

[2] = absence of glucose, compared with glucose-elevated level
[3] = with glucose stimulation (16.8 mM)

How did the “GLP-1 secretion (GLP-1 concentration by ELISA)” value (shortened to “GLP-1 secretion”) (NCI-H716; [2]) turn out when `NC(=O)c1ccc(I)c([N+](=O)[O-])c1` [Iniparib] was run?
Its value is “equal or greater level of GLP-1 secretion”.

What about the “GLP-1 secretion” value (NCI-H716; [3]) of the same compound?
Its value is “elevated further”.

Which “GLP-1 secretion” value (NCI-H716; [2]) does the source give for `O=C(c1cc(Cc2n[nH]c(=O)c3ccccc23)ccc1F)N1CCN(C(=O)C2CC2)CC1` [Olaparib] here?
Its value is “equal or greater level of GLP-1 secretion”.

And the “GLP-1 secretion” value (NCI-H716; [3])?
The value was “elevated further”.

How did the “GLP-1 secretion” value (NCI-H716; [2]) turn out when `CNCc1ccc(-c2[nH]c3cc(F)cc4c3c2CCNC4=O)cc1` [Rucaparib] was run?
Its value is “equal or greater level of GLP-1 secretion”.

And the “GLP-1 secretion” value (NCI-H716; [3])?
Its value is “elevated further”.

For insulin, which “ATP-dependent RNA helicase A binding to rs7903146 oligo, increase upon insulin stimulation” value [1] is on record?
The value was 12 fold.

And the “Parp-1 binding to rs7903146 oligo, up-regulation upon insulin stimulation” value [1]?
Its value is 20%.

And the “Thrap3 binding to rs7903146 oligo, increase upon insulin stimulation” value [1]?
The value was 7 fold.
